Assay results published in patent US20080213236A1, “Natural Remedy-Dietary Supplement Combination Product” (priority 2005, published 2008).

Assays:
[1] = system: patients with rheumatoid arthritis; assay: Treatment of rheumatoid arthritis patients with the individual substances or extracts A-F; assay type: in vivo, human; conditions: for alleviation/reduction of joint pain / improvement in joint sensitivity: after two weeks; for Result of treatment, scale of 1-10: individual substance, scale from 1 (scarcely any alleviation of symptoms) to 10 (complete elimination of symptoms)
Description: All the abovementioned active ingredients or medicinal plant extracts A-F were tested singly in the treatment of rheumatoid arthritis. The following products and daily doses were used for this: A. Omega-3 fatty acids: 8 capsules of Ameu® 500 mg. One capsule of Ameu contains 500 mg of fish body oil (fatty oil from […] comprises 70 mg of eicosapentaenoic acid and 50 mg of docosahexaenoic acid (total 120 mg of omega-3 fatty acids). B. α-Tocopherol (vitamin E): 800 to 1000 I.U. once a day. C. Ascorbic acid (vitamin C): 3 g in three 1000 mg doses. D. Selenium: 300 μg of selenium as sodium selenite 5H2O ([…]® or […]®) once a day. E. Harpagophytum: 2×480 mg of dry extract once a day (extractant: ethanol 60% (V/V) (BIOCUR Arzneimittel GmbH). F. Boswellia serrata: 3×400 mg of dry extract once a day (H 15 Gufic tablets (Gufic Chem, India)). […] A positive rheumatoid factor was not obligatory. All the treated patients had elevated C-reactive protein and frequently raised ferritin as signs of inflammation. Bacterial and parasitic causes, and allergies (including yersinia, staphylococci, streptococci, mycoplasma, Whipple's disease, borreliosis and gluten allergies) were excluded. […] All the patients had discontinued their previous medication (morphine, ibuprofen, cortisol, etc.) at least one week before starting the treatment, or had received no medical therapy over a prolonged period because of toxic side effects of other medicaments. The results of treatment were classified on a scale of from 1 (scarcely any alleviation of symptoms) to 10 (complete elimination of symptoms).

[2] = single substance; cited from earlier work
rheumatoid arthritis = conditions: vitamin E alone, 1200 mg/day, without influencing the immune markers; cited from earlier work

Row | SMILES | alleviation/reduction of joint pain [1] | improvement in joint sensitivity [1] | Result of treatment, scale of 1-10 [1] | effectiveness compared with total root extract [2] | pain (rheumatoid arthritis)
1 | O=C1O[C@H]([C@@H](O)CO)C(O)=C1O [Ascorbic acid (vitamin C), Ascorbic acid] | 2-5% | 5-10% | 2 |  | 
2 | C[C@]1(OC(=O)/C=C/c2ccccc2)C[C@@H](O)[C@]2(O)C=CO[C@@H](O[C@@H]3O[C@H](CO)[C@@H](O)[C@H](O)[C@H]3O)[C@@H]21 [Harpagoside] |  |  |  | far less effective than the total root extract | 
3 | Cc1c(C)c2c(c(C)c1O)CC[C@@](C)(CCC[C@H](C)CCC[C@H](C)CCCC(C)C)O2 [α-Tocopherol (vitamin E), α-Tocopherol] | 5% | 10% | 3.0 |  | alleviation of pain
